Results on two molecules are retold here after patent publication US20050282843A1, “Therapeutic applications of 2-substituted 4-heteroarylpyrimidines” (priority 2002, published 2005).

Data set [1] relates to cellular glycogen synthase activity in HEK293 cells. The experiment in a line: Glycogen synthase (GS) assay in HEK293 cells. It is filed as cell-based, human. The protocol:
(§1) Cells on 10 cm dishes (Human Embryonic Kidney (HEK) 293 cells, L6 rat myocytes, or 3T3 mouse adipocytes) were treated with different concentrations of GSK3-inhibitors or DMSO vehicle for 90 min. Incubation medium was removed and cells were washed with ice-cold phosphate-buffered saline (PBS) prior to lysis on ice in 50 mM HEPES, pH 7.5, 10 mM EDTA, 100 mM NaF, 5 mM DTT, protease inhibitor cocktail (Sigma). After a freeze/thaw cycle the samples are sonicated for 10 sec and centrifuged at 15,000 g for 10 min at 4° C. Lysate supernatants were snap-frozen on liquid nitrogen and stored at −80° C. Lysates were assayed for glycogen synthase activity in buffer (50 mM Tris-HCl, pH 7.8, 20 mM EDTA, 25 mM NaF, 5 mM DTT, 1% glycogen, 0.3 mM UDP-glucose and 0.06 μCi of [^14C]-UDP-glucose in the presence of 0.1 or 10 mM glucose-6-phosphate. The reaction was carried out for 30 min at 30° C. 70 μL of the reaction mixture (total volume 90 μL) were transferred to a GFC 96-well filter plate (bottom sealed with foil), containing 140 μL 96% ethanol. The GFC plate was incubated for 1 h on ice and than washed with 66% ethanol. To each well 100 μL scintillant liquid was added and the radioactivity of the samples was measured using a scintillation counter (Topcount, HP). Data are expressed as -fold increase in glycogen synthase activity ratios over those of control samples.

For data set [2], the system named is cellular glycogen synthase activity in L6 rat myocyte cells. Put plainly: Glycogen synthase (GS) assay in L6 rat myocytes. It is filed as cell-based. The protocol:
Rat skeletal muscle myoblasts L6/G8.C5 were seeded at 2.4×10^5 cells per 10 cm dish in DMEM 10% foetal calf serum (FCS), containing penicillin/streptomycin. When 90% confluence was reached the medium was exchanged with α MEM, supplemented with 2% FCS and penicillin/streptomycin. Medium was refreshed every 48 hours and 4-7 days later the myocytes were formed.
as §1

Another data set deals with male ZDF fa/fa rats. The experiment in a line: Oral glucose tolerance test (OGTT). It is filed as in vivo, rat. The protocol:
For the OGTT male ZDF fa/fa rats (Charles River, USA), 10-11 weeks old, were used. After 15 h fasting the animals were dosed intravenously with 5 mg/kg test compound in dosing vehicle, or with dosing vehicle (10% DMSO, 90% PEG-400) only at −270 and −30 min. At 0 min the rats were given 2 g/kg glucose by oral gavage. Plasma samples were taken before and every 15 min after the OGTT for determination of blood glucose.

Data set [3] addresses GSK-3β (Oryctolagus cuniculus, UniProt G1T8E2). The experiment in a line: GSK-3β kinase assay (phosphorylation of CREB phosphopeptide). It is filed as biochemical, rabbit. The protocol:
(§2) GSK-3 was obtained from New England Biolabs (UK) Ltd., Hitchin, Herts. The recombinant enzyme was isolated from a strain of E. coli that carries a clone expressing GSK-3β derived from a rabbit skeletal muscle cDNA library [Wang, Q. M.; Fiol, C. […] The samples were transferred to 96-well p81 filter plates (Whatman Polyfiltronics, Kent, UK), and the plates were washed 4 times with 200 μL/well of 75 mM aq orthophosphoric acid.

Data set [4] has as its system GSK-3β. Described as above. It is filed as biochemical, rabbit. Particulars: ratio of IC50 values. The protocol:
as §2

Data set [5] relates to cellular glycogen synthase activity in 3T3 mouse adipocyte cells. Put plainly: Glycogen synthase (GS) assay in 3T3 mouse adipocytes. It is filed as cell-based. The protocol:
Mouse pre-adipocytes 3T3-F442A were seeded at 9×10^5 cells per 10 cm dish in DMEM 10% FCS, containing penicillin/streptomycin. When 90% confluent, the same medium was supplemented with […] insulin. After 3-5 days (when most cells were differentiated) insulin was removed and 4 days later the cells were ready to use.
as §1

The target of another data set is CDK4/cyclin D1 (Homo sapiens, UniProt P11802). Put plainly: CDK/cyclin kinase assay, CDK4/cyclin D1.
Sequence of CDK4/cyclin D1 (P11802 whole entry): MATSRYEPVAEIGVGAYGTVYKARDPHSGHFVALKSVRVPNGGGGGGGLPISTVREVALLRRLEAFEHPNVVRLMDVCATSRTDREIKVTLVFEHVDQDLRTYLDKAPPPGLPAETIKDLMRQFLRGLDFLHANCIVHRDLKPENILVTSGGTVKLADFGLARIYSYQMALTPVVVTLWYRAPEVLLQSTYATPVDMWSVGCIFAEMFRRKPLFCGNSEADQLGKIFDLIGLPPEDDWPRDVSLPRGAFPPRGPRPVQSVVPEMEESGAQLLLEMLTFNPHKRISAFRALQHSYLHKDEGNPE
Sequence of CDK4/cyclin D1 (P24385 whole entry partner): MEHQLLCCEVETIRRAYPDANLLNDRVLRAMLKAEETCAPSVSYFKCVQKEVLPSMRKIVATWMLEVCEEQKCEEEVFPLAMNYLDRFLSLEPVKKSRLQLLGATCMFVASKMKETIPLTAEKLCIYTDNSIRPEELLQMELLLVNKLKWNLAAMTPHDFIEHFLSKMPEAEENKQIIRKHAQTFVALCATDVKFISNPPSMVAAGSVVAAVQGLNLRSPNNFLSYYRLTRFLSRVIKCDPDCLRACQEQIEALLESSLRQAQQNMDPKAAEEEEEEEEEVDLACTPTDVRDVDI
A further data set deals with T1, CDK2/cyclin E (Homo sapiens, UniProt P24941).
T1 construct: His6; made in house; host or cells: Sf9 insect cells (baculovirus)
The experiment in a line: CDK/cyclin kinase assay, CDK2/cyclin E. It is filed as biochemical. Particulars: read-out: Kinase inhibition IC50 CDK2/E.

Another data set has as its target CDK1/cyclin B1 (Homo sapiens, UniProt P06493). Put plainly: CDK/cyclin kinase assay, CDK1/cyclin B1.
For a further data set, the target named is CDK2/cyclin A (Homo sapiens, UniProt P24941). The experiment in a line: CDK/cyclin kinase assay, CDK2/cyclin A.
The next data set relates to GSK3. The note with it: known CDK inhibitors; cited from earlier work.
Where [6] appears, read: 5 mg/kg intravenously at -270 and -30 min, OGTT.

Where two headings read alike, the source gives them in different places.

Sequence of GSK-3β (Oryctolagus cuniculus, UniProt G1T8E2) (G1T8E2 1-432): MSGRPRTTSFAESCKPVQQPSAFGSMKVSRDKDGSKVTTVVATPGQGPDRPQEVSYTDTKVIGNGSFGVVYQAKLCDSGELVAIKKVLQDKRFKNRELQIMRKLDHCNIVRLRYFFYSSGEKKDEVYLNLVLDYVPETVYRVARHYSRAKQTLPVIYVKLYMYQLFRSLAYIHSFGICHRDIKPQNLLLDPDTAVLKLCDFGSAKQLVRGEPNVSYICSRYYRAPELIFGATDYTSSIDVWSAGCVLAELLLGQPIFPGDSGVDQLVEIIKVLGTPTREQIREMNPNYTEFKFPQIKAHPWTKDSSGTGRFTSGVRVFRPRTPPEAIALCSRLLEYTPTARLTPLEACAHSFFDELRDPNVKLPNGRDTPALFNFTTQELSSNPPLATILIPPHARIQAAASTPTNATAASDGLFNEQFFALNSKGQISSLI
Sequence of CDK1/cyclin B1 (P06493 whole entry): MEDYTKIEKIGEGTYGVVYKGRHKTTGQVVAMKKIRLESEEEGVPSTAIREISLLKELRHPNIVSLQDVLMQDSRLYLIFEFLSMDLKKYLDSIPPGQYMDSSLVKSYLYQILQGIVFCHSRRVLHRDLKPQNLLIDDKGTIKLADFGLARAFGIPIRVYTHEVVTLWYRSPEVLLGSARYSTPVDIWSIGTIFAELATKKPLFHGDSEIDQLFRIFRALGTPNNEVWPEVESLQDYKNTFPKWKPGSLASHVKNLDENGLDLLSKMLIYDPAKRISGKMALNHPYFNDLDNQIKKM
Sequence of CDK1/cyclin B1 (P14635 whole entry partner): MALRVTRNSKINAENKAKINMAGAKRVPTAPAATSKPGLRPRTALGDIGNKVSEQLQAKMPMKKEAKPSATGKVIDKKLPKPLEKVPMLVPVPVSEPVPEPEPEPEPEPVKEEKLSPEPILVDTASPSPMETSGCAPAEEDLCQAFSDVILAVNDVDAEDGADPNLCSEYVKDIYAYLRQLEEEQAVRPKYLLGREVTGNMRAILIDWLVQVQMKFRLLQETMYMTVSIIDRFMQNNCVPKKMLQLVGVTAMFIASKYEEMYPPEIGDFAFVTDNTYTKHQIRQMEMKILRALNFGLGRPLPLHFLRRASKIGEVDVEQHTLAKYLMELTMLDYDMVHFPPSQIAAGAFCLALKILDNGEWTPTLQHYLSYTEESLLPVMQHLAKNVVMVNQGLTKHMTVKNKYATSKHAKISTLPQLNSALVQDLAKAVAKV
Protocol for CDK1/cyclin B1: (§3) His6-tagged recombinant human cyclin-dependant kinases CDK1/cyclin B1, CDK2/cyclin E, CDK2/cyclin A, and CDK4 were expressed in sf9 insect cells using a baculovirus expression system. Recombinant cyclin D1 was expressed in E. coli. […] Kinase assays were performed in 96-well plates using recombinant CDK/cyclins. […] Reactions were stopped on ice, followed by filtration through p81 or GF/C filterplates (for CDK4) (Whatman Polyfiltronics, Kent, UK). After washing 3 times with 75 mM aq orthophosphoric acid, plates were dried, scintillant added and incorporated radioactivity measured in a scintillation counter (TopCount, Packard Instruments, Pangbourne, Berks, UK). Compounds for kinase assays were made up as 10 mM stocks in DMSO and diluted into 10% DMSO in assay buffer.
Protocol for CDK2/cyclin A: as §3
Protocol for CDK2/cyclin E: as §3
Protocol for CDK4/cyclin D1: as §3

Take `Cc1[nH]c(C#N)c(C)c1-c1ccnc(Nc2ccc(N(C)C)c([N+](=O)[O-])c2)n1` [Compound 20, 4-[2-(4-Dimethylamino-3-nitro-phenylamino)-pyrimidin-4-yl]-3,5-dimethyl-1H-pyrrole-2-carbonitrile]: the “activity of glycogen synthase, fractional reaction velocity (ratio of activity at 0.1 and 10 mM glucose-6 phosphate)” value is on record as “increased the activity of glycogen synthase” in [1] (HEK293 cells, dose-dependent, FIG. 1); “increased the activity of glycogen synthase” in data set [2] (rat myocyte cells, dose-dependent, FIG. 1); “increased the activity of glycogen synthase” in data set [5] (mouse adipocyte cells, dose-dependent, FIG. 1). Moreover, the “-Fold induction of GS activity” value in data set [1] (In HEK293 cells at [compound] = 5 μM, over control samples) is recorded as 2.4 -fold. The “activation of GS” value in data set [2] (myocytes, at 1 μM) is reported as 2 -fold; in data set [5] (adipocytes, at 1 μM), 4 -fold. Besides, the glucose tolerance entry in the data set with male ZDF fa/fa rats (5 mg/kg intravenously at -270 and -30 min, 2 g/kg oral glucose) is on record as “improved the glucose tolerance in ZDF rats significantly”. Moreover, the “decrease of absolute AUC (blood glucose)” value with male ZDF fa/fa rats (setting [6]) is recorded as 22%. Moreover, in the data set on male ZDF fa/fa rats (setting [6]), the “decrease of reactive AUC (blood glucose)” value is on record as 39%. In addition, the “insulin levels after treatment” value in the data set with male ZDF fa/fa rats (OGTT) is “decreased”. Besides, the IC50 is less than 10 nM at GSK-3β [3] (read-out: IC50 value as measured by a GSK3β kinase assay); 5 nM at GSK-3β [3] (read-out: Kinase inhibition IC50 GSK3β); 160 nM at CDK4/cyclin D1; 150 nM at CDK2/cyclin E; 50 nM on CDK1/cyclin B1; 100 nM against CDK2/cyclin A. For the same molecule, the “Selectivity, IC50 (CDK2/E)/IC50 (GSK3β)” value with GSK-3β [4] came to 30.
As for `CC[C@H](CO)Nc1nc(NCc2ccccc2)c2ncn(C(C)C)c2n1` [roscovitine], in the data set with GSK3, the “inhibition of GSK3 (literature statement)” value is “do not inhibit GSK3”.
